According to ChEMBL document CHEMBL3352629, “Hydroxamic acid based histone deacetylase inhibitors with confirmed activity against the malaria parasite” (Bioorg Med Chem Lett, 2015):
Activity calls are given as the source filed them. The calls are words filed in the database; no cut-off is given here.

system: Plasmodium falciparum; test: Antiprotozoan activity against Plasmodium falciparum infected in mouse assessed as mouse survival at 50 mg/kg, ip QD for 4 days; type: functional; conditions: route intraperitoneal

Structure (SMILES) | Survival [days]
C[C@@H]1CC[C@H]2[C@@H](C)C(=O)O[C@@H]3O[C@@]4(C)CC[C@@H]1[C@]32OO4 [ARTEMISININ] | >30

system: Leishmania donovani; test: Antiprotozoan activity against Leishmania donovani MHOM- ET-67/L82 amastigotes; type: functional, organism-based; conditions: not given

IC50 | Structure (SMILES)
Not Active | CC(=O)SCCCCC[C@H](NC(=O)[C@H]1CCC(=O)N1)C(=O)Nc1cccc(C(F)(F)F)c1
Not Active | CC(=O)SCCCCC[C@H](NC(=O)[C@H]1CCC(=O)N1)C(=O)Nc1ccccc1

same assay, conditions: Leishmania donovani, MHOM- ET-67/L82; read-out: IC50

IC50 [µM] | Structure (SMILES)
3.15 | CCCCCCCCCCCCCCCCOP(=O)([O-])OCC[N+](C)(C)C [MILTEFOSINE]

system: NCI-H460; test: Cytotoxicity against human NCI-H460 cells; type: functional, cell-based; conditions: not given

Structure (SMILES) | IC50 [nM]
CC(=O)SCCCCC[C@H](NC(=O)[C@H]1CCC(=O)N1)C(=O)Nc1ccccc1 | 66

system: Giardia intestinalis; test: Antiprotozoan activity against Giardia lamblia G1; type: functional, organism-based; conditions: Giardia duodenalis

IC50 [µM] | Structure (SMILES)
40.9 | CC(=O)SCCCCC[C@H](NC(=O)[C@H]1CCC(=O)N1)C(=O)Nc1cccc(C(F)(F)F)c1
8.11 | CC(=O)SCCCCC[C@H](NC(=O)[C@H]1CCC(=O)N1)C(=O)Nc1ccccc1

system: Plasmodium falciparum; test: Antiprotozoan activity against Plasmodium falciparum NF54 IEF forms; type: functional, organism-based; conditions: not given

IC50 [µM] | Structure (SMILES)
3.24 | CC(=O)SCCCCC[C@H](NC(=O)[C@H]1CCC(=O)N1)C(=O)Nc1cccc(C(F)(F)F)c1
6.57 | CC(=O)SCCCCC[C@H](NC(=O)[C@H]1CCC(=O)N1)C(=O)Nc1ccccc1

system: Trypanosoma brucei rhodesiense; test: Antiprotozoan activity against Trypanosoma brucei rhodesiense STIB 900 trypomastigotes; type: functional, organism-based; conditions: not given

IC50 [nM] | Structure (SMILES)
2380 | CC(=O)SCCCCC[C@H](NC(=O)[C@H]1CCC(=O)N1)C(=O)Nc1cccc(C(F)(F)F)c1
2510 | CC(=O)SCCCCC[C@H](NC(=O)[C@H]1CCC(=O)N1)C(=O)Nc1ccccc1

system: Leishmania donovani; test: Antiprotozoan activity against Leishmania donovani MHOM- ET-67/L82 amastigotes at 1 uM; type: functional, organism-based; conditions: not given

Structure (SMILES) | Activity
CC(=O)SCCCCC[C@H](NC(=O)[C@H]1CCC(=O)N1)C(=O)Nc1cccc(C(F)(F)F)c1 | inactive
CC(=O)SCCCCC[C@H](NC(=O)[C@H]1CCC(=O)N1)C(=O)Nc1ccccc1 | inactive

system: Plasmodium falciparum; test: Antiprotozoan activity against Plasmodium falciparum infected in mouse assessed as reduction in parasite growth at 50 mg/kg, ip QD for 4 days; type: functional; conditions: 96 h, route intraperitoneal

Structure (SMILES) | inhibition in vivo at 50 mg/kg [%]
C[C@@H]1CC[C@H]2[C@@H](C)C(=O)O[C@@H]3O[C@@]4(C)CC[C@@H]1[C@]32OO4 [ARTEMISININ] | 99.9

system: L6; test: Cytotoxicity against rat L6 cells; type: ADME, cell-based; conditions: not given

Structure (SMILES) | IC50 [nM]
CC(=O)SCCCCC[C@H](NC(=O)[C@H]1CCC(=O)N1)C(=O)Nc1cccc(C(F)(F)F)c1 | 91
CC(=O)SCCCCC[C@H](NC(=O)[C@H]1CCC(=O)N1)C(=O)Nc1ccccc1 | 189

system: Trypanosoma cruzi; test: Antiprotozoan activity against Trypanosoma cruzi Tulahuen C4 amastigotes; type: functional, organism-based; conditions: not given

IC50 [µM] | Structure (SMILES)
3.98 | CC(=O)SCCCCC[C@H](NC(=O)[C@H]1CCC(=O)N1)C(=O)Nc1cccc(C(F)(F)F)c1
2.1 | CC(=O)SCCCCC[C@H](NC(=O)[C@H]1CCC(=O)N1)C(=O)Nc1ccccc1
